Columns and labels:
[1] = In vitro copper complexing studies; details: compared with ammonium salt of TM
[2] = Solubility and stability of TM salts; details: other salts of TM
From the text: Thus, other salts have been prepared and evaluated for solubility, stability and anticopper activity.

hAPP tg mice = details: pharmacologic treatment of hAPP tg mice; cited from earlier work
[3] = system: Wilson's disease patients; details: cited from earlier work
bleomycin mouse model = details: in vivo; cited from earlier work
[4] = system: Wilson's disease patients; details: at cupruresis of 2-3 mg
Method: Ingestion of copper is about 1 mg/day, with obligatory, non-urine losses of about 0.5 mg.

cancer patients = details: cited from earlier work
[5] = therapeutic dose 1,000-2,000 mg/day

CCC[N+](CCC)(CCC)CCC.CCC[N+](CCC)(CCC)CCC.[S]=[Mo](=[S])([S-])[S-] [TPTM, tetrapropyl tetrathiomolybdate]
in vitro copper complexing [1]: behave similarly to ammonium salt of TM
solubility in water [2]: suitable solubility in water

C[N+](C)(C)CCO.C[N+](C)(C)CCO.[SH-].[SH-].[S]=[Mo]=[S] [choline TM]
in vitro copper complexing [1]: behave similarly to ammonium salt of TM

Oc1c(I)cc(Cl)c2cccnc12 [clioquinol]
amyloid pathology (hAPP tg mice): prevented

CC(C)Cc1ccc(C(C)C(=O)O)cc1 (centres unmarked) [ibuprofen]
amyloid pathology (hAPP tg mice): prevented

CC(C)(S)[C@@H](N)C(=O)O [penicillamine]
patients developing initial hypersensitivity syndrome ([3]; human, in vivo): about a quarter to a third of patients

Cc1ccc(=O)n(-c2ccccc2)c1 [perfenidone]
efficacy in the bleomycin mouse model (bleomycin mouse model): effective in the bleomycin mouse model

CC[N+](CC)(CC)CC.CC[N+](CC)(CC)CC.[S]=[Mo](=[S])([S-])[S-] [tetraethyl TM]
in vitro copper complexing [1]: behave similarly to ammonium salt of TM
solubility in water [2]: suitable solubility in water

NCCNCCNCCN [trientine]
negative copper balance [4]: 1.5 to 2.5 mg/day
patients with proteinuria ([3]; after several weeks of use): about 20%
cupruresis after the first few weeks of therapy [3, 5]: 2 to 3 mg
cupruresis, initial [3, 5]: 4 to 5 mg

CC(=O)[O-].CC(=O)[O-].[Zn+2] [zinc, zinc acetate]
copper balance induced ([3]; Wilson's patients, average): −0.35 mg daily
time to achieve intestinal metallothionein induction and a negative copper balance ([3]; Wilson's patients): approximately two
time to bring urine copper and nonceruloplasmin plasma copper down to subtoxic levels ([3]; zinc therapy): six

bleomycin
patients developing pulmonary fibrosis (cancer patients): about 3%

From US7416741B2, “Copper lowering treatment of inflammatory and fibrotic diseases” (The Regents of the University of Michigan, priority 2002, dated 2008)
